According to ChEMBL document CHEMBL6153083, “Synthesis, Structural Modification, and Antismall Cell Lung Cancer Activity of 3-Arylisoquinolines with Dual Inhibitory Activity on Topoisomerase I and II” (J Med Chem, 2025):

Columns and labels:
NCI-H1048 [1] = assay: Antiproliferative activity against human NCI-H1048 cells incubated for 72 hrs; type: functional, cell-based; conditions: NCI-H1048, 72 h
NCI-H209 = assay: Antiproliferative activity against human NCI-H209 cells incubated for 72 hrs; type: functional, cell-based; conditions: NCI-H209, 72 h
NCI-H146 = assay: Antiproliferative activity against human NCI-H146 cells incubated for 72 hrs; type: functional, cell-based; conditions: NCI-H146, 72 h
NCI-H82 = assay: Antiproliferative activity against human NCI-H82 cells incubated for 72 hrs; type: functional, cell-based; conditions: NCI-H82, 72 h
[2] = Antiproliferative activity against human NCI-H196 cells incubated for 72 hrs; type: functional, cell-based; conditions: NCI-H196, 72 h
NCI-H446 [3] = assay: Antiproliferative activity against human NCI-H446 cells incubated for 72 hrs; type: functional, cell-based; conditions: NCI-H446, 72 h
SHP77 = assay: Antiproliferative activity against human SHP77 cells incubated for 72 hrs; type: functional, cell-based; conditions: SHP77, 72 h
[4] = Antiproliferative activity against human L02 cells incubated for 72 hrs; type: toxicity, cell-based
[5] = Antiproliferative activity against human BEAS-2B cells incubated for 72 hrs; type: toxicity, cell-based
[6] = Toxicity in BALB/c nude mouse xenografted with human NCI-H446 cells assessed as body weight change at 20 mg/kg, ip for 21 days; type: organism-based; conditions: in vivo, 504 h, time 21 day
NCI-H446 [7] = assay: Inhibition of cell invasion in human NCI-H446 cells incubated for 24 hrs by transwell assay; type: functional, cell-based
NCI-H446 [8] = assay: Antitumor activity against human NCI-H446 cells xenografted in BALB/c nude mouse at 20 mg/kg, ip for 21 days relative to control; type: functional; conditions: NCI-H446, 504 h, time 21 day, read-out: TGI
NCI-H446 [9] = assay: Induction of early apoptosis in human NCI-H446 cells incubated for 48 hrs by Annexin V-FITC/PI staining based flow cytometry; type: functional, cell-based; conditions: dose 1-8 µM
NCI-H1048 [10] = assay: Induction of early apoptosis in human NCI-H1048 cells incubated for 48 hrs by Annexin V-FITC/PI staining based flow cytometry; type: functional, cell-based; conditions: dose 1-8 µM
NCI-H1048 [11] = assay: Inhibition of cell invasion in human NCI-H1048 cells incubated for 24 hrs by transwell assay; type: functional, cell-based

Row | Structure (SMILES) | IC50 (NCI-H1048 [1]) | IC50 (NCI-H209) | IC50 (NCI-H146) | IC50 (NCI-H82) | IC50 [2] | IC50 (NCI-H446 [3]) | IC50 (SHP77) | IC50 at 72 h [4] | IC50 at 72 h [5] | Activity [6] | inhibition (NCI-H446 [7]) | inhibition in vivo at 20 mg/kg (NCI-H446 [8]) | Activity (NCI-H446 [9]) | Activity (NCI-H1048 [10]) | inhibition (NCI-H1048 [11])
1 | CC(C)(C)C1CCN(Cc2cc3c(cc2-c2cc4ccc5c(c4cn2)OCO5)OCO3)CC1 | 2.68 µM | > 100 µM | 10.1 µM | 2.96 µM | 7.5 µM | 7.1 µM | 8.55 µM | > 100 µM | > 100 µM | – | – | – | – | – | –
2 | CC1CCN(Cc2cc3c(cc2-c2cc4ccc5c(c4cn2)OCO5)OCO3)CC1 | 12.3 µM | 55.8 µM | 44.1 µM | 25.7 µM | 26.3 µM | 42.7 µM | 31.1 µM | 34.9 µM | 23.7 µM | – | – | – | – | – | –
3 | CC(O)C1CCN(Cc2cc3c(cc2-c2cc4ccc5c(c4cn2)OCO5)OCO3)CC1 (stereo not drawn) | 38.2 µM | 62.2 µM | 24.4 µM | 47.7 µM | 32.3 µM | 27.5 µM | 28.4 µM | 30.3 µM | 21.8 µM | – | – | – | – | – | –
4 | c1c(CN2CCCCCCCC2)c(-c2cc3ccc4c(c3cn2)OCO4)cc2c1OCO2 | 7.22 µM | 30.7 µM | 14 µM | 15 µM | 13.9 µM | 12.5 µM | 16.3 µM | 24.8 µM | 17 µM | – | – | – | – | – | –
5 | OC1CCCN(Cc2cc3c(cc2-c2cc4ccc5c(c4cn2)OCO5)OCO3)CC1 (stereo not drawn) | 21 µM | 47.5 µM | 30.9 µM | 30 µM | 38.7 µM | 45.9 µM | 28.4 µM | 37.4 µM | 21.1 µM | – | – | – | – | – | –
6 | FC(F)(F)C1CCN(Cc2cc3c(cc2-c2cc4ccc5c(c4cn2)OCO5)OCO3)CC1 | > 100 µM | > 100 µM | 39.8 µM | > 100 µM | 34.5 µM | 15.5 µM | 25.4 µM | 56.3 µM | > 100 µM | – | – | – | – | – | –
7 | c1c(CN2CC3CC3C2)c(-c2cc3ccc4c(c3cn2)OCO4)cc2c1OCO2 (stereo not drawn) | 16.8 µM | 52.7 µM | > 100 µM | 29.1 µM | 38.9 µM | 18.7 µM | 21.3 µM | 26.8 µM | 23.7 µM | – | – | – | – | – | –
8 | COc1cc([C@@H]2c3cc4c(cc3[C@@H](O[C@@H]3O[C@@H]5CO[C@@H](C)O[C@H]5[C@H](O)[C@H]3O)[C@H]3COC(=O)[C@H]23)OCO4)cc(OC)c1O [ETOPOSIDE] | 1.52 µM | > 100 µM | 10.6 µM | 8.39 µM | 24.1 µM | 2.1 µM | 26.3 µM | 15.9 µM | 6.19 µM | Toxic | Dose-dependent-effect | 68.7% | Not active; Exhibited Minimal Impact | Not active; Exhibited Minimal Impact | Dose-dependent-effect
9 | CC1(C)CCN(Cc2cc3c(cc2-c2cc4ccc5c(c4cn2)OCO5)OCO3)C1 | 7.22 µM | 30.7 µM | 14 µM | 15 µM | 13.9 µM | 12.5 µM | 16.3 µM | 24.8 µM | 17 µM | – | – | – | – | – | –
10 | NC(=O)C1CCN(Cc2cc3c(cc2-c2cc4ccc5c(c4cn2)OCO5)OCO3)CC1 | 38.6 µM | 77 µM | > 100 µM | 63.4 µM | 57.7 µM | 74.1 µM | 41.5 µM | 25.1 µM | 28.8 µM | – | – | – | – | – | –
11 | CC1(C)CCN(Cc2cc3c(cc2-c2cc4ccc5c(c4cn2)OCO5)OCO3)CC1 | > 100 µM | > 100 µM | > 100 µM | > 100 µM | > 100 µM | 55.7 µM | > 100 µM | > 100 µM | > 100 µM | – | – | – | – | – | –
12 | CC(C)(O)C1CCN(Cc2cc3c(cc2-c2cc4ccc5c(c4cn2)OCO5)OCO3)CC1 | 56.1 µM | 64.9 µM | > 100 µM | 67.4 µM | 53 µM | 28.7 µM | 40.4 µM | 38.2 µM | 30.1 µM | – | – | – | – | – | –
13 | CCC1CCCCN1Cc1cc2c(cc1-c1cc3ccc4c(c3cn1)OCO4)OCO2 (stereo not drawn) | 13.4 µM | 25.4 µM | 33.1 µM | 15.9 µM | 17.1 µM | 16.9 µM | 20.8 µM | 22.6 µM | 20.7 µM | – | – | – | – | – | –
14 | c1c(CN2CC3(CCCCC3)C2)c(-c2cc3ccc4c(c3cn2)OCO4)cc2c1OCO2 | 12.9 µM | 31.8 µM | 15.5 µM | 12.4 µM | 30.6 µM | 13.8 µM | 23.6 µM | 41.5 µM | 12.6 µM | – | – | – | – | – | –
15 | CC(C)C1CCN(Cc2cc3c(cc2-c2cc4ccc5c(c4cn2)OCO5)OCO3)CC1 | 2.21 µM | 6.92 µM | < 6.25 µM | 1.7 µM | 14.5 µM | 2.65 µM | 8.17 µM | 18.2 µM | > 100 µM | – | – | – | – | – | –
16 | O=C1CCC2CCN(Cc3cc4c(cc3-c3cc5ccc6c(c5cn3)OCO6)OCO4)CN12 (stereo not drawn) | > 100 µM | > 100 µM | 63 µM | 73.2 µM | 78.2 µM | 49.6 µM | 36 µM | 84.6 µM | > 100 µM | – | – | – | – | – | –
17 | FC1CCN(Cc2cc3c(cc2-c2cc4ccc5c(c4cn2)OCO5)OCO3)CC1 | > 100 µM | > 100 µM | > 100 µM | > 100 µM | > 100 µM | 97.8 µM | > 100 µM | > 100 µM | > 100 µM | – | – | – | – | – | –
18 | c1c(CN2CC3(CCCC3)C2)c(-c2cc3ccc4c(c3cn2)OCO4)cc2c1OCO2 | 19.9 µM | 34.2 µM | 28.7 µM | 26.6 µM | 15.9 µM | 18.6 µM | 31.2 µM | > 100 µM | 14.8 µM | – | – | – | – | – | –
